For orientation: IC50 means the concentration at which inhibition is half-maximal. A word on the EC50: it is the concentration at which the effect is half-maximal.

Experiment [1] has as its target T1, recombinant human CB1 receptor (Homo sapiens, UniProt P21554).
T1 construct: expressed in transfected cells; CB1-CHO cell suspension for cAMP
The experiment is described as follows: Cannabinoid Receptor-1 (CB1) Binding Assay. As for the experimental part: Binding affinity determination is based on recombinant human CB1 receptor expressed in Chinese Hamster Ovary (CHO) cells (Felder et al, Mol. Pharmacol. 48: 443-450, 1995). Total assay volume is 250 μl (240 μl CB1 receptor membrane solution plus 5 μl test compound solution plus 5 μl [3H]CP-55940 solution). Final concentration of [3H]CP-55940 is 0.6 nM. Binding buffer contains 50 mM Tris-HCl, pH7.4, 2.5 mM EDTA, 5 mM MgCl2, 0.5 mg/mL fatty acid free bovine serum albumin and protease inhibitors (Cat#P8340, from Sigma). To initiate the binding reaction, 5 μl of radioligand solution is added, the mixture is incubated with gentle shaking on a shaker for 1.5 h at 30° C. The binding is terminated by using 96-well harvester and filtering through GF/C filter presoaked in 0.05% polyethylenimine. The bound radiolabel is quantitated using scintillation counter. Apparent binding affinities for various compounds are calculated from IC50 values (DeBlasi et al., Trends Pharmacol Sci 10: 227-229, 1989).

The target of experiment [2] is T2, recombinant human CB1 receptor expressed in CHO cells (Homo sapiens, UniProt P21554).
T2 construct: expressed in transfected cells; CB1-CHO cell suspension for cAMP
The experiment is described as follows: Cannabinoid Receptor-1 (CB1) Functional Activity Assay (cAMP). The format is cell-based. The procedure: The functional activation of CB1 receptor is based on recombinant human CBI receptor expressed in CHO cells (Felder et al, Mol. Pharmacol. 48: 443-450, 1995). To determine the agonist activity or inverse agonist activity of any test compound, 50 ul of CB1-CHO cell suspension are mixed with test compound and 70 ul assay buffer containing 0.34 mM 3-isobutyl-1-methylxanthine and 5.1 uM of forskolin in 96-well plates. The assay buffer is comprised of Earle's Balanced Salt Solution supplemented with 5 mM MgCl2, 1 mM glutamine, 10 mM HEPES, and 1 mg/mL bovine serum albumin. The mixture is incubated at room temperature for 30 minutes, and terminated by adding 30 μl/well of 0.5M HCl. The total intracellular cAMP level is quantitated using the New England Nuclear Flashplate and cAMP radioimmunoassay kit.

Setting [3] is: recombinant human CB1 receptor in CHO cells, [3H]CP-55940 0.6 nM, read-out: CB1 binding IC50.
Setting [4] is: CB1-CHO cells, forskolin, intracellular cAMP, read-out: CB1 function activity EC50.

Structures are written as SMILES. Read-outs that look alike come from different tables or passages of the source.

T2 sequence (P21554 whole entry): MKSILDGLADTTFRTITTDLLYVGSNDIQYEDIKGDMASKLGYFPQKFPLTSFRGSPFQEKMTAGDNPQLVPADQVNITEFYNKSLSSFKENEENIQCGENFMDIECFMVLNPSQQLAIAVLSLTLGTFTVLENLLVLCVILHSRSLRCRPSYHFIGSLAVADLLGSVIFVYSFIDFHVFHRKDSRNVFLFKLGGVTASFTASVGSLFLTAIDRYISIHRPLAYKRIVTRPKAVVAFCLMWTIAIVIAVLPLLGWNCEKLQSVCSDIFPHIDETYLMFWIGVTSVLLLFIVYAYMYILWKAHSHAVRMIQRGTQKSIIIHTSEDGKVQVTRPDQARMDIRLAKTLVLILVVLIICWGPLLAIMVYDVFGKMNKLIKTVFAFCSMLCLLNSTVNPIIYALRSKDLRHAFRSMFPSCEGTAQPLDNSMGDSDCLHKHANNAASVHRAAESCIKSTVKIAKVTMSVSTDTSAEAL
T1 sequence (P21554 whole entry): as above

For the compound `O=C(CC1CC1)N1CCN(S(=O)(=O)c2cccc3ccccc23)CC1` [Example 17, 4-(cyclopropyl-acetyl)-1-(1-naphthylsulfonyl)piperazine], the IC50 in experiment [1] (setting [3]) worked out at 0.303 µM. Besides, in experiment [2] (setting [4]), the concentration for a half-maximal effect (EC50) was 0.0011 µM.

On to `O=C(N1CCCCC1)N1CCN(S(=O)(=O)c2cccc3ccccc23)CC1` [Example 83, 4-(piperidin-1-yl-carbonyl)-1-(1-naphthylsulfonyl) piperazine], for which the IC50 in experiment [1] (setting [3]) is 3.79 µM. For the same compound, in experiment [2] (setting [4]), the EC50 came to 0.0105 µM.

Consider `O=C(c1ccccc1)N1CCN(S(=O)(=O)c2cc(C(F)(F)F)cc(C(F)(F)F)c2)CC1` [Example 89, 4-benzoyl-1-((3,5-bis(trifluoromethyl)phenyl)sulfonyl)piperazine], for which, in experiment [1] (setting [3]), the IC50 is 3.22 µM. In experiment [2] (setting [4]), the EC50 was 0.0377 µM.

As to `O=C(C1CCCCC1)N1CCN(S(=O)(=O)c2cc(Cl)cc(Cl)c2)CC1` [Example 101, 4-(cyclohexyl-carbonyl)-1-((3,5-dichlorophenyl)sulfonyl)piperazine], the IC50 in experiment [1] (setting [3]) worked out at 0.421 µM. The concentration for a half-maximal effect (EC50) in experiment [2] (setting [4]) worked out at 0.00041 µM.

On to `O=C(C1CCCCC1)N1C2CCC1CN(S(=O)(=O)c1cccc3ccccc13)C2` [Example 114, 8-(cyclohexylcarbonyl)-3-(1-naphthylsulfonyl)-3,8-diazabicyclo[3.2.1]octane], for which the IC50 in experiment [1] was 3.19 µM. In addition, the EC50 in experiment [2] was determined as 0.0151 µM.

In the case of `O=C(Cc1ccc(C(F)(F)F)cc1)N1CCN(S(=O)(=O)c2cc(C3CC3)cc(C(F)(F)F)c2)CC1` [Example 123, 4-(4-trifluoromethylphenyl-acetyl)-1-((3-cyclopropyl-5-trifluoromethyl-phenyl)sulfonyl)piperazine], the half-maximal inhibitory concentration (IC50) in experiment [1] was determined as 0.00124 µM. Besides, in experiment [2] (setting [4]), the EC50 came out at 0.00109 µM.

Take `COC(=O)c1cc(C(F)(F)F)cc(S(=O)(=O)N2CCN(C(=O)Cc3ccc(C(F)(F)F)cc3)CC2)c1` [Example 125, 4-(4-trifluoromethylphenyl-acetyl)-1-((3-methoxycarbonyl-5-trifluoromethyl-phenyl)sulfonyl)piperazine]: the IC50 in experiment [1] (setting [3]) is 0.00607 µM. For the same compound, the EC50 in experiment [2] (setting [4]) is 0.0007 µM.

As for `O=C(C1CCCCC1)N1CCN(S(=O)(=O)c2cc(C(F)(F)F)cc(C(F)(F)F)c2)CC1` [Example 132, 4-(cyclohexyl-carbonyl)-1-((3,5-bis(trifluoromethyl)phenyl)sulfonyl)piperazine], the IC50 in experiment [1] (setting [3]) amounted to 0.26 µM. In experiment [2], the concentration for a half-maximal effect (EC50) was 0.00107 µM.

These data come from patent US20090247499A1, “SULFONYLATED PIPERAZINES AS CANNABINOID-1 RECEPTOR MODULATORS” (priority 2006, published 2009).
